# Measured values from ChEMBL document CHEMBL1158721, “Brasilibactin A, a cytotoxic compound from actinomycete Nocardia brasiliensis” (J Nat Prod, 2005).
# Legend:
# Type in all cases: functional, cell-based
# [1] = system: HL-60; assay: Induction of apoptosis in human HL60 cells assessed as increase in caspase3 activity
# [2] = system: KB; assay: Cytotoxicity against human KB cells
# [3] = system: L1210; assay: Cytotoxicity against mouse L1210 cells
structure (smiles),measurement,setting,value
CCCCCCCCCCCCCCC[C@H](OC(=O)[C@@H](CCCCN(O)C=O)NC(=O)[C@H]1COC(c2ccccc2O)=N1)[C@@H](C)C(=O)N[C@@H]1CCCCN(O)C1=O [BRASILIBACTIN A],Activity,[1],Dose-dependent effect
same,IC50,[2],0.04 µg/mL
same,IC50,[3],0.02 µg/mL
